Values joined by “and” are separate entries in the source; they are usually repeats but may differ in a detail not shown here. Identical values can stand only once.
Assays:
[1] = target: T1, BVDV (NADL) RNA-dependent RNA polymerase (RdRp) (Bovine viral diarrhea virus, UniProt P19711); settings: reference compounds; cited from earlier work
T1 construct: BVDV (NADL) RNA-dependent RNA polymerase (RdRp) was expressed and purified; made in house

MDBK cells = experiment: Cytotoxicity assay, proliferation of exponentially growing MDBK cells (MTS/PMS); type: cell-based, bovine; settings: 5 days
Experimental: (§1) Assays were carried out, as described previously.

BVDV NADL virus = experiment: CPE-based antiviral assay, BVDV NADL in MDBK cells (MTS/PMS); settings: for S.I.: selectivity index, CC50 vs EC50
[2] = target: T1, BVDV (NADL) RNA-dependent RNA polymerase (RdRp); experiment: RNA-dependent RNA polymerase assay, poly(C) template; type: biochemical; settings: purified RdRp; for effect on the activity of the viral polymerase: up to 500 µM
Experimental: BVDV (NADL) RNA-dependent RNA polymerase (RdRp) was expressed and purified, as described before. […] In brief, the purified BVDV polymerase (100 nM) was mixed with 100 µM GTP (containing 8.3 µM of [^3H]GTP, Perkin Elmer) and increasing concentration of the inhibitor (0.2 µM, 0.7 µM, 2 µM, 6 µM, 19 µM, 56 µM, 165 µM or 500 µM) in 50 mM Hepes pH 8.0, 10 mM KCl, 10 mM DTT, 1 mM MgCl2, 2mM MnCl2, and 0.5% igepal (Sigma). The enzyme mix and inhibitors were pre-incubated, in order to favor enzyme-inhibitor interactions before RNA binding. Reactions were started by the addition of 100 nM of poly(C) (about 500 nt in size) template. Reactions were incubated at 30 °C and stopped by addition of 50 mM EDTA. Samples were transferred onto DE-81 filters, washed with 0.3 M ammonium formate solution, and dried. Radioactivity bound to the filter was determined by liquid scintillation counting.

[3] = Cytotoxicity assay, proliferation of exponentially growing MDBK cells (MTS/PMS); type: cell-based, bovine; settings: bovine
Experimental: as §1

BVDV-1 (strain NADL) = experiment: microbe, parasite or virus in culture; type: cell-based, bovine viral diarrhea virus (BVDV); settings: Bovine viral diarrhea virus isolates and strains; RT-qPCR, MDBK cells
[4] = test system: panel of unrelated RNA and DNA viruses; experiment: Activity against a panel of unrelated RNA and DNA viruses; type: cell-based; settings: data not shown
[5] = test system: RCs from MDBK cells infected with the TO505-6180res virus; experiment: Replication complex (RC) assay, TO505-6180res BVDV; type: biochemical, bovine viral diarrhea virus (BVDV); settings: RCs from TO505-6180res infected MDBK cells
Experimental: (§2) The replication complex (RC) assay is similar to the one described before. In brief, BVDV-infected MDBK cells were suspended in an ice-cold hypotonic buffer A (10 mM Tris, 10 mM NaCl pH 7.8) and were further disrupted by 50 strokes with a Dounce homogenizer. The disrupted cells were pelleted by centrifugation at 1,000× g for 5 min at 4 °C. The supernatant fraction, containing cytoplasmic material and plasma membranes, was concentrated by high-speed centrifugation at 200,000× g for 20 min at 4 °C. The pellet was resuspended in 120 µL of hypotonic buffer B (10 mM Tris, 10 mM NaCl pH 7.8 and 15% glycerol) and used for an RNA polymerase assay. Replicase reactions were carried out, as described before, with some modifications. The [α-^33P]UTP (3,000 mCi/mmol) was replaced by [α-^33P]CTP (3,000 mCi/mmol). The following incubation, RNA extraction, RNA analysis, and quantification were performed, as previously described.

hepatitis C virus = experiment: In vitro activity against hepatitis C virus; type: cell-based
[6] = test system: classical swine fever virus (CSFV); type: cell-based
[7] = target: BVDV WT replication complexes (Bovine viral diarrhea virus, UniProt P19711); experiment: Replication complex (RC) assay, wild-type BVDV; type: biochemical; settings: for effect on activity of BVDV WT replication complexes: RCs isolated 14 h post-infection
BVDV WT replication complexes, sequence (P19711 3270-3988, one chain of several): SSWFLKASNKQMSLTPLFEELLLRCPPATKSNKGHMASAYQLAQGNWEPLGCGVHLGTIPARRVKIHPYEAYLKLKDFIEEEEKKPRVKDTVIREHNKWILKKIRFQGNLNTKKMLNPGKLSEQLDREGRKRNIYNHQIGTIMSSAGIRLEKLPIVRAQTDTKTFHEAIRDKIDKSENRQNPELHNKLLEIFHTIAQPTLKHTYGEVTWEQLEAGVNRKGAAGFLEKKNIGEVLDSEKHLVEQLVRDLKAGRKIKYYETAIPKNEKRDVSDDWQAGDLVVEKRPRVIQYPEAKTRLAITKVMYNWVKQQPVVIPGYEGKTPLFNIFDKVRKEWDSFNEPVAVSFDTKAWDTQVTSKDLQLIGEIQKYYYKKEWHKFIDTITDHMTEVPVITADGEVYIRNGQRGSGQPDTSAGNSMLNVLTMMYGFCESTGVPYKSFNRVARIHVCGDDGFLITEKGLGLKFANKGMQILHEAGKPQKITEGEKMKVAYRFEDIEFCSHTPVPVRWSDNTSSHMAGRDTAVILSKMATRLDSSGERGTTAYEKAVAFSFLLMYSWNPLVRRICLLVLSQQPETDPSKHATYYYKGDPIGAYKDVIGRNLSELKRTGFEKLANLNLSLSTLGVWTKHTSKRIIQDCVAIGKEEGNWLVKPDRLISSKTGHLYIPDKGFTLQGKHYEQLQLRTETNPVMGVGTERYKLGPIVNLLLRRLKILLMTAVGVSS
Experimental: as §2

[8] = protection against BVDV (NADL, wild type)-induced CPE in MDBK cells, 3 days
[9] = sheet CSFCII#, potency relative to TO502-2403 (EC50 0.2 µM)
[10] = Bovine viral diarrhea virus isolates and strains, MDBK, 72 h
[11] = sheet CSFCI#, potency relative to TO505-6180 (EC50 0.07 µM)

T1 sequence (P19711 3270-3988): as the sequence (P19711 3270-3988, one chain of several) above

Molecule: Brc1ccc(Cn2ccc3nc(-c4ccccc4)nc-3c2)cc1 [BPIP, 5-[(4-bromophenyl)methyl]-2-phenyl-5H-imidazo[4,5-c]pyridine]
- inhibitory effect on the highly purified BVDV RdRp [1]: none of these compounds had any inhibitory effect

Molecule: Cc1cccc2sc(nc12)NC(=O)c4cc(nc3ccccc34)c5cccn5 [CSFC-59]
- CC50 (MDBK cells): > 100000 nM
- EC50 (BVDV NADL virus; [8]): 54000 nM
- S.I. (BVDV NADL virus): 2
- fold increase (BVDV NADL virus; [9]): 0.0037

Molecule: Nc1nc2c(cnn2CCCc2ccc3c(c2)OCO3)c2nc(-c3ccco3)nn12 [LZ37, 7-[3-(1,3-benzodioxol-5-yl)propyl]-2-(2-furyl)-7H-pyrazolo[4,3-e][1,2, 4]triazolo[1,5-c]pyrimidin-5-amine]
- inhibitory effect on the highly purified BVDV RdRp [1]: none of these compounds had any inhibitory effect

Molecule: Nc1nc2c(ncn2[C@@H]2O[C@H](COP(=O)(O)OP(=O)(O)OP(=O)(O)O)C[C@H]2O)c(=O)[nH]1 [3′-dGTP, 3′-deoxyguanosine-5’-triphosphate, reference compound]
- IC50 ([2]; read-out: 50% inhibitory concentration for the BVDV polymerase activity): < 1000 nM

Molecule: Cc1ccc2nc(NC(=O)c3cc(-c4ccco4)nc4ccccc34)sc2c1 [TO505-6180, 2-(2-furanyl)-N-(6-methyl-2-benzothiazolyl)-4-Quinolinecarboxamide]
- CC50 at 5 days [3]: > 100000 nM
- EC50 (BVDV-1 (strain NADL)): 30 nM and 60 nM
- activity against a panel of unrelated RNA and DNA viruses [4]: inactive
- effect on the activity of the viral polymerase [2]: no effect
- fold less susceptible than BVDV wt RCs [5]: 3 to 4 fold
- EC50 (BVDV NADL virus; [10]): 70 nM
- in vitro activity against hepatitis C virus (hepatitis C virus): inactive
- inhibition of in vitro CSFV replication [6]: inhibited
- effect on activity of BVDV WT replication complexes [7]: inhibited the activity of the BVDV wt RCs in a dose-dependent manner

Molecule: Cc1cc(nn1)NC(=O)c3cc(nc2ccccc23)c4ccccc4 [CSFC-20]
- CC50 (MDBK cells): > 100000 nM
- S.I. (BVDV NADL virus): 1
- fold increase (BVDV NADL virus; [9]): 0.002

Molecule: O=C(Nc2cc(c1ccccc1)nn2)c4cc(nc3ccc(F)cc34)c5cccs5 [CSFC-124]
- CC50 (MDBK cells): > 100000 nM
- EC50 (BVDV NADL virus; [8]): 22000 nM
- S.I. (BVDV NADL virus): 5
- fold increase (BVDV NADL virus; [9]): 0.00909

Molecule: CCOC(=O)c1cc2ccn3c(c-2n1)N=C(C)C3 [AG110, ethyl 2-methylimidazo[1,2-a]pyrrolo[2,3-c]pyridin-8-carboxylate]
- inhibitory effect on the highly purified BVDV RdRp [1]: none of these compounds had any inhibitory effect

Molecule: O=C(Nc1ccn(-c2ccccc2)n1)c1cc(-c2ccccc2)nc2ccccc12 [TO502-2403, 2-phenyl-N-(1-phenyl-1H-pyrazol-3-yl)-4-Quinolinecarboxamide]
- CC50 at 5 days [3]: > 100000 nM
- EC50 (BVDV-1 (strain NADL)): 60 nM and 50 nM
- activity against a panel of unrelated RNA and DNA viruses [4]: inactive
- effect on the activity of the viral polymerase [2]: no effect
- EC50 (BVDV NADL virus; [10]): 200 nM
- in vitro activity against hepatitis C virus (hepatitis C virus): inactive
- inhibition of in vitro CSFV replication [6]: inhibited
- effect on activity of BVDV WT replication complexes [7]: inhibited the activity of the BVDV WT replication complexes in a dose-dependent manner
- inhibition at 10 µM ([7]; at 10 µM, read-out: maximum inhibition of BVDV WT replication complex activity): ~90%

Molecule: Cc1cccc2sc(NC(=O)c3cc(-c4ccco4)nc4ccccc34)nc12 [CSFC-35, Cc1cccc2sc(nc12)NC(=O)c1cc(nc2ccccc21)c1ccco1]
- CC50 at 5 days [3]: > 100000 nM
- EC50 (BVDV NADL virus; [10]): 300 nM
- S.I. (BVDV NADL virus): 333
- fold increase (BVDV NADL virus; [11]): 0.23

Molecule: Cc1cccc2sc(NC(=O)c3cc(-c4ccccc4)nc4ccccc34)nc12 [CSFC-1, Cc1cccc2sc(nc12)NC(=O)c1cc(nc2ccccc21)c1ccccc1]
- CC50 at 5 days [3]: > 100000 nM
- EC50 (BVDV NADL virus; [10]): 300 nM
- S.I. (BVDV NADL virus): 333
- fold increase (BVDV NADL virus; [11]): 0.23

Molecule: COc1ccc2nc(NC(=O)c3cc(-c4ccsc4)nc4ccccc34)sc2c1 [CSFC-82, O=C(c2cc(nc1ccccc12)c3ccsc3)Nc4nc5ccc(cc5s4)OC]
- CC50 at 5 days [3]: > 100000 nM
- EC50 (BVDV NADL virus; [10]): 200 nM
- S.I. (BVDV NADL virus): 500
- fold increase (BVDV NADL virus; [9]): 1.00

Molecule: Cc1cccc2sc(NC(=O)c3cc(-c4ccccc4F)nc4c(F)cccc34)nc12 [CSFC-103, Fc1ccccc1c3nc2c(cccc2F)c(c3)C(=O)Nc4nc5c(C)cccc5s4]
- CC50 at 5 days [3]: > 100000 nM
- EC50 (BVDV NADL virus; [10]): 500 nM
- S.I. (BVDV NADL virus): 200
- fold increase (BVDV NADL virus; [9]): 0.40

Molecule: O=C(Nc1ccn(-c2ccccc2)n1)c1cc(-c2cccs2)nc2ccccc12 [CSFC-47, O=C(Nc1ccn(n1)c2ccccc2)c4cc(nc3ccccc34)c5cccs5]
- CC50 at 5 days [3]: > 100000 nM
- EC50 (BVDV NADL virus; [10]): 1700 nM
- S.I. (BVDV NADL virus): 59
- fold increase (BVDV NADL virus; [9]): 0.12

Molecule: O=C(Nc1ccn(-c2ccccc2)n1)c1cc(-c2cccs2)nc2c(F)cccc12 [CSFC-100, O=C(Nc1ccn(n1)c2ccccc2)c4cc(nc3c(F)cccc34)c5cccs5]
- CC50 at 5 days [3]: > 100000 nM
- EC50 (BVDV NADL virus; [10]): 50 nM
- S.I. (BVDV NADL virus): 2000
- fold increase (BVDV NADL virus; [9]): 4.00

Reference: paper PMC7144022, “Quinolinecarboxamides Inhibit the Replication of the Bovine Viral Diarrhea Virus by Targeting a Hot Spot for the Inhibition of Pestivirus Replication in the RNA-Dependent RNA Polymerase” (Molecules, 2020)
